Laboratory results reported in US20260285855A1, “HETEROARYL DERIVATIVES AS DDRS INHIBITORS” (CHIESI FARMACEUTICI S.P.A., priority 2023, published 2026).
pKi: −log10 of the molar value.

What was measured:
DDR1 = target: T1, DDR1 (Homo sapiens, UniProt Q08345); assay: LanthaScreen Europium Kinase Binding assay, DDR1; conditions: 5 nM DDR1, 20 nM Kinase Tracer 178, 1 h at rt; Ki from IC50 by Cheng-Prusoff; read-out: Ki DDR1
T1 construct: purchased Carna Biosciences
Experimental: (§1) DDR1 and DDR2 binding assays were performed using Life Technologies LanthaScreen™ Europium Kinase Binding assay. […] IC50 values were determined in GraphPad Prism 7.0 software, using 4 parameter model: log (inhibitor) vs. response. IC50 values were converted in Ki using the Cheng-Prusoff equation (Ki-IC50/(1+ [Tracer]/Kd).

DDR2 = target: T2, DDR2 (Homo sapiens, UniProt Q16832); assay: LanthaScreen Europium Kinase Binding assay, DDR2; conditions: 5 nM DDR2, 10 nM Kinase Tracer 178, 1 h at rt; Ki from IC50 by Cheng-Prusoff; read-out: Ki DDR2
T2 construct: purchased Life Technologies
T2 sequence (Q16832 22-855): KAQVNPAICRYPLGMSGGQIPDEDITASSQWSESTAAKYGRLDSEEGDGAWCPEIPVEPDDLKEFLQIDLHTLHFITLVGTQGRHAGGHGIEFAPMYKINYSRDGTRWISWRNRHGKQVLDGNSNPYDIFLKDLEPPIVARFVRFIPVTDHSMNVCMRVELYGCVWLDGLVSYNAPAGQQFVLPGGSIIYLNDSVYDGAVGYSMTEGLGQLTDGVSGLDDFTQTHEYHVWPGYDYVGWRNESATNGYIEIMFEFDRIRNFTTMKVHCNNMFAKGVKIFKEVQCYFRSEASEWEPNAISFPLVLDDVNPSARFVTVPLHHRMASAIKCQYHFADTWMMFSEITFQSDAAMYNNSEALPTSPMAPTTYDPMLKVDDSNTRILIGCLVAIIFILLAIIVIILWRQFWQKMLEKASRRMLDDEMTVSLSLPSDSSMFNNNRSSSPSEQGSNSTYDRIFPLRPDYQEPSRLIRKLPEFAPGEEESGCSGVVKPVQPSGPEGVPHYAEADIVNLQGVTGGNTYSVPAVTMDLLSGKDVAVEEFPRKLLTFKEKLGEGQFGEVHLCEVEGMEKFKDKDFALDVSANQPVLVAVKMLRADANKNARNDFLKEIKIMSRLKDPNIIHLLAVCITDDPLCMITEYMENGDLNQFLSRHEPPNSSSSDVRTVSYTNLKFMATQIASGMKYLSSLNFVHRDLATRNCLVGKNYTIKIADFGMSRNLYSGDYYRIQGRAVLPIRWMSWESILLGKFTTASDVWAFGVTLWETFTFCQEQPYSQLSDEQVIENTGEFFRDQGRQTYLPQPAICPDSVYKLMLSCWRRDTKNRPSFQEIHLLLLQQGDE
Experimental: as §1

T1 sequence (Q08345 19-913): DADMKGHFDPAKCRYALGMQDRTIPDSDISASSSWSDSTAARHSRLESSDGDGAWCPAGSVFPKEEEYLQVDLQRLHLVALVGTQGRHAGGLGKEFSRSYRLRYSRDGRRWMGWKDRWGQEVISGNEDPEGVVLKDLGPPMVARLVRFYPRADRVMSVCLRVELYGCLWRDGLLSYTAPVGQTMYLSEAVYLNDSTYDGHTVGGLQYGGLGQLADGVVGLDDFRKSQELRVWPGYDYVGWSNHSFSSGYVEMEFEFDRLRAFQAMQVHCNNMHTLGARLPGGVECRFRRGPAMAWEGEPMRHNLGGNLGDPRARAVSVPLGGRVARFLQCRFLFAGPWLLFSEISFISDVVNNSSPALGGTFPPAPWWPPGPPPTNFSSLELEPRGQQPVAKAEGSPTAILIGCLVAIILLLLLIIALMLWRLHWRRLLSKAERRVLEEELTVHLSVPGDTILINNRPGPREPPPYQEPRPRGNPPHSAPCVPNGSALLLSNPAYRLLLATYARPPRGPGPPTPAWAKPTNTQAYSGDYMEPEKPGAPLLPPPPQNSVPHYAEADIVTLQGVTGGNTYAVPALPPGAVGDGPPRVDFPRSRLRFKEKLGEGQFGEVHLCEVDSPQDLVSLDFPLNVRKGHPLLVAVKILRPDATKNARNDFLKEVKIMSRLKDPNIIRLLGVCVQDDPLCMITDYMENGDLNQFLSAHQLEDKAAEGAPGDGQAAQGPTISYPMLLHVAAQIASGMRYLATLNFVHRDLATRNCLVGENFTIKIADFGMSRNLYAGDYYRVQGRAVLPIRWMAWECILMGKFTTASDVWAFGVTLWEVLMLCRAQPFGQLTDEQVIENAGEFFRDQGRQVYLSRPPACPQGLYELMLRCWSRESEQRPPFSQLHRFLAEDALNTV

pKi (DDR1)	pKi (DDR2)	Structure (SMILES)
7.60 to 8.30	< 7.00	COc1cccc(NC(=O)NC2CC3(C2)CN(C(=O)c2cnn4ccsc24)C3)c1 [Example 33, 1-(3-methoxyphenyl)-3-(2-(pyrazolo[5,1-b]thiazole-7-carbonyl)-2-azaspiro[3.3]heptan-6-yl)urea]
> 8.30	> 8.30	Cn1ccn2ncc(C(=O)N3CC4(CC(NC(=O)Nc5cccc(CC(F)(F)F)c5)C4)C3)c12 [Example 34, 1-(2-(1-methyl-1H-imidazo[1,2-b]pyrazole-7-carbonyl)-2-azaspiro[3.3]heptan-6-yl)-3-(3-(2,2,2-trifluoroethyl)phenyl)urea]
> 8.30	7.60 to 8.30	CC(C)c1cncc(NC(=O)NC2CC3(C2)CN(C(=O)c2cnn4ccsc24)C3)c1 [Example 35, 1-(5-isopropylpyridin-3-yl)-3-(2-(pyrazolo[5,1-b]thiazole-7-carbonyl)-2-azaspiro[3.3]heptan-6-yl)urea]
> 8.30	7.60 to 8.30	COc1ccc(OC(F)(F)F)cc1NC(=O)NC1CC2(C1)CN(C(=O)c1cnn3ccn(C)c13)C2 [Example 36, 1-(2-methoxy-5-(trifluoromethoxy)phenyl)-3-(2-(1-methyl-1H-imidazo[1,2-b]pyrazole-7-carbonyl)-2-azaspiro[3.3]heptan-6-yl)urea]
> 8.30	7.60 to 8.30	Cn1ccn2ncc(C(=O)N3CC4(CC(NC(=O)Nc5cncc(C(F)(F)F)c5)C4)C3)c12 [Example 37, 1-(2-(1-methyl-1H-imidazo[1,2-b]pyrazole-7-carbonyl)-2-azaspiro [3.3]heptan-6-yl)-3-(5-(trifluoromethyl)pyridin-3-yl)urea]
> 8.30	7.60 to 8.30	COc1ccc(Cl)cc1NC(=O)NC1CC2(C1)CN(C(=O)c1cnn3ccn(C)c13)C2 [Example 38, 1-(5-chloro-2-methoxyphenyl)-3-(2-(1-methyl-1H-imidazo[1,2-b]pyrazole-7-carbonyl)-2-azaspiro[3.3]heptan-6-yl)urea]
> 8.30	> 8.30	Cn1ccn2ncc(C(=O)N3CC4(CC(NC(=O)Nc5cc(C#N)cc(C(F)(F)F)c5)C4)C3)c12 [Example 39, 1-(3-cyano-5-(trifluoromethyl)phenyl)-3-(2-(1-methyl-1H-imidazo[1,2-b]pyrazole-7-carbonyl)-2-azaspiro[3.3]heptan-6-yl)urea]
> 8.30	> 8.30	O=C(Nc1cccc(C(F)(F)F)c1)NC1CC2(C1)CN(C(=O)c1cnn3ccccc13)C2 [Example 40, 1-(2-(pyrazolo[1,5-a]pyridine-3-carbonyl)-2-azaspiro[3.3]heptan-6-yl)-3-(3-(trifluoromethyl)phenyl)urea]
> 8.30	7.60 to 8.30	O=C(Nc1cc(CO)cc(C(F)(F)F)c1)NC1CC2(C1)CN(C(=O)c1cnn3ccsc13)C2 [Example 41, 1-(3-(hydroxymethyl)-5-(trifluoromethyl)phenyl)-3-(2-(pyrazolo[5,1-b]thiazole-7-carbonyl)-2-azaspiro[3.3]heptan-6-yl)urea]
> 8.30	7.60 to 8.30	Cn1ccn2ncc(C(=O)N3CC4(CC(NC(=O)Nc5cccc(S(F)(F)(F)(F)F)c5)C4)C3)c12 [Example 42, 1-(2-(1-methyl-1H-imidazo[1,2-b]pyrazole-7-carbonyl)-2-azaspiro[3.3]heptan-6-yl)-3-(3-(pentafluoro-16-sulfaneyl)phenyl)urea]
> 8.30	7.60 to 8.30	Cc1ccc(-n2nc(C(C)(C)C)cc2NC(=O)NC2CC3(C2)CN(C(=O)c2cnn4ccn(C)c24)C3)cc1 [Example 43, 1-(3-(tert-butyl)-1-(p-tolyl)-1H-pyrazol-5-yl)-3-(2-(1-methyl-1H-imidazo[1,2-b]pyrazole-7-carbonyl)-2-azaspiro[3.3]heptan-6-yl)urea]
7.00 to 7.60	7.00 to 7.60	O=C(Nc1cccc(C(F)(F)F)c1)NC1CC2(C1)CN(C(=O)c1ccncc1)C2 [Example 44, 1-(2-isonicotinoyl-2-azaspiro[3.3]heptan-6-yl)-3-(3-(trifluoromethyl)phenyl)urea]
> 8.30	> 8.30	Cn1ccn2ncc(C(=O)N3CC4(CC(NC(=O)Nc5cc(C(F)(F)F)ccc5Cl)C4)C3)c12 [Example 45, 1-(2-chloro-5-(trifluoromethyl)phenyl)-3-(2-(1-methyl-1H-imidazo[1,2-b]pyrazole-7-carbonyl)-2-azaspiro[3.3]heptan-6-yl)urea]
> 8.30	> 8.30	O=C(Nc1cccc(C(F)(F)F)c1)NC1CC2(C1)CN(C(=O)c1ccnc3cc[nH]c13)C2 [Example 46, 1-(2-(1H-pyrrolo[3,2-b]pyridine-7-carbonyl)-2-azaspiro[3.3]heptan-6-yl)-3-(3-(trifluoromethyl)phenyl)urea]
> 8.30	7.60 to 8.30	CN(C(=O)Nc1cncc(C(F)(F)F)c1)C1CC2(C1)CN(C(=O)c1cnn3ccsc13)C2 [Example 47, 1-methyl-1-(2-(pyrazolo[5,1-b]thiazole-7-carbonyl)-2-azaspiro[3.3]heptan-6-yl)-3-(5-(trifluoromethyl)pyridin-3-yl)urea]
> 8.30	7.60 to 8.30	COc1ccc(OC(F)(F)F)cc1NC(=O)NC1CC2(C1)CN(C(=O)c1ccnc3ccsc13)C2 [Example 48, 1-(2-methoxy-5-(trifluoromethoxy)phenyl)-3-(2-(thieno[3,2-b]pyridine-7-carbonyl)-2-azaspiro[3.3]heptan-6-yl)urea]
> 8.30	> 8.30	O=C(Nc1cncc(C(F)(F)F)c1)NC1CC2(C1)CN(C(=O)c1ccnc3ccsc13)C2 [Example 49, 1-(2-(thieno[3,2-b]pyridine-7-carbonyl)-2-azaspiro[3.3]heptan-6-yl)-3-(5-(trifluoromethyl)pyridin-3-yl)urea]
> 8.30	7.60 to 8.30	CN(C(=O)Nc1cccc(CC(F)(F)F)c1)C1CC2(C1)CN(C(=O)c1cnn3ccn(C)c13)C2 [Example 50, 1-methyl-1-(2-(1-methyl-1H-imidazo[1,2-b]pyrazole-7-carbonyl)-2-azaspiro[3.3]heptan-6-yl)-3-(3-(2,2,2-trifluoroethyl)phenyl)urea]
> 8.30	7.60 to 8.30	Cn1ccn2ncc(C(=O)N3CC4(CC(NC(=O)Nc5cncc(OC(F)(F)F)c5)C4)C3)c12 [Example 51, 1-(2-(1-methyl-1H-imidazo[1,2-b]pyrazole-7-carbonyl)-2-azaspiro[3.3]heptan-6-yl)-3-(5-(trifluoromethoxy)pyridin-3-yl)urea]
> 8.30	7.60 to 8.30	COc1ccc(OC(F)(F)F)cc1NC(=O)N(C)C1CC2(C1)CN(C(=O)c1cnn3ccn(C)c13)C2 [Example 52, 3-(2-methoxy-5-(trifluoromethoxy)phenyl)-1-methyl-1-(2-(1-methyl-1H-imidazo[1,2-b]pyrazole-7-carbonyl)-2-azaspiro[3.3]heptan-6-yl)urea]
> 8.30	7.60 to 8.30	CN(C(=O)Nc1cc(C#N)cc(C(F)(F)F)c1)C1CC2(C1)CN(C(=O)c1cnn3ccn(C)c13)C2 [Example 53, 3-(3-cyano-5-(trifluoromethyl)phenyl)-1-methyl-1-(2-(1-methyl-1H-imidazo[1,2-b]pyrazole-7-carbonyl)-2-azaspiro[3.3]heptan-6-yl)urea]
> 8.30	7.60 to 8.30	COc1ccc(OC(F)(F)F)cc1NC(=O)NC1CC2(C1)CN(C(=O)c1cnc3cccnn13)C2 [Example 54, 1-(2-(imidazo[1,2-b]pyridazine-3-carbonyl)-2-azaspiro[3.3]heptan-6-yl)-3-(2-methoxy-5-(trifluoromethoxy)phenyl)urea]
> 8.30	7.60 to 8.30	COc1ccc(OC(F)(F)F)cc1NC(=O)NC1CC2(C1)CN(C(=O)c1cnn3cccnc13)C2 [Example 55, 1-(2-methoxy-5-(trifluoromethoxy)phenyl)-3-(2-(pyrazolo[1,5-a]pyrimidine-3-carbonyl)-2-azaspiro[3.3]heptan-6-yl)urea]
> 8.30	7.60 to 8.30	Cn1ccn2ncc(C(=O)N3CC4(CC(NC(=O)Nc5cc(C(F)(F)F)ccc5OCCN5CCOCC5)C4)C3)c12 [Example 56, 1-(2-(1-methyl-1H-imidazo[1,2-b]pyrazole-7-carbonyl)-2-azaspiro[3.3]heptan-6-yl)-3-(2-(2-morpholinoethoxy)-5-(trifluoromethyl)phenyl)urea]
> 8.30	7.60 to 8.30	COc1ccc(OC(F)(F)F)cc1NC(=O)NC1CC2(C1)CN(C(=O)c1cnc3cnccn13)C2 [Example 57, 1-(2-(imidazo[1,2-a]pyrazine-3-carbonyl)-2-azaspiro[3.3]heptan-6-yl)-3-(2-methoxy-5-(trifluoromethoxy)phenyl)urea]
